Tests used:
[1] = molecular target: 5-hydroxytryptamine receptor 1D (Homo sapiens) (UniProt P28221); conditions: Compound concentration 10.0 uM
[2] = molecular target: Serine/threonine-protein kinase tousled-like 2 (Homo sapiens) (UniProt Q86UE8); conditions: Compound concentration 1000.0 nM
[3] = molecular target: RAC-alpha serine/threonine-protein kinase (Homo sapiens) (UniProt P31749); conditions: Compound concentration 1000.0 nM
[4] = molecular target: Muscarinic acetylcholine receptor M4 (Homo sapiens) (UniProt P08173); conditions: Compound concentration 10.0 uM
Sequence of Muscarinic acetylcholine receptor M4 (Homo sapiens) (P08173 whole entry): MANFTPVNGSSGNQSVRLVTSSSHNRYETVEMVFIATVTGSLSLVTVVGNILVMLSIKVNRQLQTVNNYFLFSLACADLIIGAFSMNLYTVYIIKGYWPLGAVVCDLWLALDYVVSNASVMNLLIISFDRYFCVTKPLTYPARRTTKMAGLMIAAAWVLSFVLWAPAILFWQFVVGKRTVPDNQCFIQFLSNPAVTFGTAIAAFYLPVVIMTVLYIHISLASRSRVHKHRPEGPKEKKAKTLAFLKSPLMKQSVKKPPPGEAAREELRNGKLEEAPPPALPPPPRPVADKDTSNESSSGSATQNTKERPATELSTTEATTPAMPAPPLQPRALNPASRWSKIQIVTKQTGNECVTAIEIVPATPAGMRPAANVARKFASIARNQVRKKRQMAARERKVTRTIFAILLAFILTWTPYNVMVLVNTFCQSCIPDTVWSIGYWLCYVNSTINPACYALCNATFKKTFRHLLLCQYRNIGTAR

[5] = molecular target: Protein-tyrosine kinase 2-beta (Homo sapiens) (UniProt Q14289); conditions: Compound concentration 1000.0 nM
[6] = molecular target: Serine/threonine-protein kinase TNNI3K (Homo sapiens) (UniProt Q59H18); conditions: Compound concentration 1000.0 nM
[7] = molecular target: SRSF protein kinase 1 (Homo sapiens) (UniProt Q96SB4); conditions: Compound concentration 1000.0 nM
[8] = molecular target: G protein-coupled receptor kinase 4 (Homo sapiens) (UniProt P32298); conditions: Compound concentration 1000.0 nM
Sequence of G protein-coupled receptor kinase 4 (Homo sapiens) (P32298 whole entry, looked up): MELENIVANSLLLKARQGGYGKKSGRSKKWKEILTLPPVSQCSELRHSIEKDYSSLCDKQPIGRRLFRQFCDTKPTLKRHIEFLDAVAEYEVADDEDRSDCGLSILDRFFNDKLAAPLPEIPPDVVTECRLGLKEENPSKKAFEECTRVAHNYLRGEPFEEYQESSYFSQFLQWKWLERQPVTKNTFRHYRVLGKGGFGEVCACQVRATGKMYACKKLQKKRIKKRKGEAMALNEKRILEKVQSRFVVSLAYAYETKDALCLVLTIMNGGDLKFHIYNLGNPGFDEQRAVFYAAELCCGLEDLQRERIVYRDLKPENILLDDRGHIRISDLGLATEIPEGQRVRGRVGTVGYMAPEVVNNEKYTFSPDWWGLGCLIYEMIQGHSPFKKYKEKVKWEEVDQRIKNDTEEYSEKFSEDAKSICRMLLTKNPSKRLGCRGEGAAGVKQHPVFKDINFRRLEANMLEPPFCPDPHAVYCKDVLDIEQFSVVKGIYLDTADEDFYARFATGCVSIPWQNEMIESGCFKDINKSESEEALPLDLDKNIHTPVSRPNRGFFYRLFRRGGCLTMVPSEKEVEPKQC

[9] = molecular target: Serine/threonine-protein kinase haspin (Homo sapiens) (UniProt Q8TF76); conditions: Compound concentration 1000.0 nM
[10] = tested on: Epidermal growth factor receptor (Homo sapiens), P00533 [L858R,T790M]; conditions: Compound concentration 1000.0 nM
[11] = molecular target: SNF-related serine/threonine-protein kinase (Homo sapiens) (UniProt Q9NRH2); conditions: Compound concentration 1000.0 nM
[12] = molecular target: Protein kinase C epsilon type (Homo sapiens) (UniProt Q02156); conditions: Compound concentration 1000.0 nM
[13] = molecular target: Serine/threonine-protein kinase 32C (Homo sapiens) (UniProt Q86UX6); conditions: Compound concentration 1000.0 nM
[14] = molecular target: Serine/threonine-protein kinase D2 (Homo sapiens) (UniProt Q9BZL6); conditions: Compound concentration 1000.0 nM
Sequence of Serine/threonine-protein kinase D2 (Homo sapiens) (Q9BZL6 whole entry): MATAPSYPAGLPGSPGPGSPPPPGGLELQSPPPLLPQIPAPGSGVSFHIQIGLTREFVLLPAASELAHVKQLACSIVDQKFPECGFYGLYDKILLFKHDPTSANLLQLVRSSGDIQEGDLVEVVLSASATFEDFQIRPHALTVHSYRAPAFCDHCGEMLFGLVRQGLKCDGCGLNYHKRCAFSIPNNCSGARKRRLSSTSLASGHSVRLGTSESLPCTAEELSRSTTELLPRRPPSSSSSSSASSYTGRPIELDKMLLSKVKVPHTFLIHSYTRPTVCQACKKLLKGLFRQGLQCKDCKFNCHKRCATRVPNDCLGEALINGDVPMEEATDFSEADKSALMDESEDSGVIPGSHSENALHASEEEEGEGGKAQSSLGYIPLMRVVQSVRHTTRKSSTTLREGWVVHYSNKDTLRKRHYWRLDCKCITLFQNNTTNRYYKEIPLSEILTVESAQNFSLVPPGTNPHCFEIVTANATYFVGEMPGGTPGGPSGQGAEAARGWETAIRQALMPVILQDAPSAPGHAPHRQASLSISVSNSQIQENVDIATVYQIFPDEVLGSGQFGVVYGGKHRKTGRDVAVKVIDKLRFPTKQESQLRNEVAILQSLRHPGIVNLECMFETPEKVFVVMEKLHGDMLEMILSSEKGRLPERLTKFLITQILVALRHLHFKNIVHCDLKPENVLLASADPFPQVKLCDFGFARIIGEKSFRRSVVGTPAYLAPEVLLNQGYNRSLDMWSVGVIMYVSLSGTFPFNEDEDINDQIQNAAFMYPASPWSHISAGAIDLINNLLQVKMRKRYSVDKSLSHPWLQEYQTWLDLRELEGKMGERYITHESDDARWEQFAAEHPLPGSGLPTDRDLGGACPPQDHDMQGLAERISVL

[15] = molecular target: Protein kinase C eta type (Homo sapiens) (UniProt P24723); conditions: Compound concentration 1000.0 nM
Sequence of Protein kinase C eta type (Homo sapiens) (P24723 whole entry): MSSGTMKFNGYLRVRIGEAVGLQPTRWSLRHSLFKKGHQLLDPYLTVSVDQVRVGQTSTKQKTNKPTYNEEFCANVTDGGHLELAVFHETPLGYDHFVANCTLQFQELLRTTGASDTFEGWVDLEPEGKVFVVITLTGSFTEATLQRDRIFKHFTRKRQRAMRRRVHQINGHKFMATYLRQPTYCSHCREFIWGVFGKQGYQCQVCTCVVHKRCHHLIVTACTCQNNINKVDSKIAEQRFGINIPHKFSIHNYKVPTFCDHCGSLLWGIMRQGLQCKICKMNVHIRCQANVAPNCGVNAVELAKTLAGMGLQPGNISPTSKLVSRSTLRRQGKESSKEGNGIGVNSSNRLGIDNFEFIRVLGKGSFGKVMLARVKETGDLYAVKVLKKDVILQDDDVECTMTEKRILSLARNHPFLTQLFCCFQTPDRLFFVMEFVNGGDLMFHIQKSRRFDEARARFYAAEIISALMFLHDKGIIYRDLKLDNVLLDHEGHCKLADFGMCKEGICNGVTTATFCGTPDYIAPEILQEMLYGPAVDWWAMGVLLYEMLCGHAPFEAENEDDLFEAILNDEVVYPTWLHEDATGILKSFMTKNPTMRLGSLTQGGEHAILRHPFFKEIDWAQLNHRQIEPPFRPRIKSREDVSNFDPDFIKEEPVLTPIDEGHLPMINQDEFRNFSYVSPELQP

[16] = molecular target: 5-hydroxytryptamine receptor 1B (Homo sapiens) (UniProt P28222); conditions: Compound concentration 10.0 uM
[17] = molecular target: Muscarinic acetylcholine receptor M5 (Homo sapiens) (UniProt P08912); conditions: Compound concentration 10.0 uM
[18] = molecular target: Tyrosine-protein kinase ABL1 (Homo sapiens) (UniProt P00519); conditions: Compound concentration 1000.0 nM
[19] = molecular target: Mitogen-activated protein kinase kinase kinase 11 (Homo sapiens) (UniProt Q16584); conditions: Compound concentration 1000.0 nM
[20] = tested on: Phosphatidylinositol 4,5-bisphosphate 3-kinase catalytic subunit alpha isoform (Homo sapiens), P42336 [H1047Y]; conditions: Compound concentration 1000.0 nM
[21] = molecular target: High affinity nerve growth factor receptor (Homo sapiens) (UniProt P04629); conditions: Compound concentration 1000.0 nM
Histamine H3 receptor = Histamine H3 receptor (Homo sapiens, UniProt Q9Y5N1); conditions: Compound concentration 10.0 uM
[22] = molecular target: Serine/threonine-protein kinase PLK2 (Homo sapiens) (UniProt Q9NYY3); conditions: Compound concentration 1000.0 nM
Sequence of Serine/threonine-protein kinase PLK2 (Homo sapiens) (Q9NYY3 whole entry, looked up): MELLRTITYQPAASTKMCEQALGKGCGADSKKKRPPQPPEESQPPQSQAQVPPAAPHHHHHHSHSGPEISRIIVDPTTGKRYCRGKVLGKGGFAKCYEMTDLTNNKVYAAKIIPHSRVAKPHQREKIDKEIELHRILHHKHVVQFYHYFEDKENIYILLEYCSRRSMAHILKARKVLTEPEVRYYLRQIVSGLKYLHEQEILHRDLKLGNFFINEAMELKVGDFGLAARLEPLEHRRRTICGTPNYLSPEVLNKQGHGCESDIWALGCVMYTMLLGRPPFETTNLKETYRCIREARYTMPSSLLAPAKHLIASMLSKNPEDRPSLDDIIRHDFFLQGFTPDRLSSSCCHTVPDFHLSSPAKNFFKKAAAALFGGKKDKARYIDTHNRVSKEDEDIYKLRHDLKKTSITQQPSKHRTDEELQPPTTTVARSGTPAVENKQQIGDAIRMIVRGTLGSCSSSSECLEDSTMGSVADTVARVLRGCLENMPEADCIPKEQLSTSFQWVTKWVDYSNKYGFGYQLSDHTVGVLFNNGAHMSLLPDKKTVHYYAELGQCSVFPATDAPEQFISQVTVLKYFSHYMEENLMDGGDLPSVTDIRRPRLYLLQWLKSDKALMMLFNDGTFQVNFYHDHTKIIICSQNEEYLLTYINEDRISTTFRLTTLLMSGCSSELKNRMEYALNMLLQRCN

[23] = tested on: Epidermal growth factor receptor (Homo sapiens), P00533 [UNDEFINED MUTATION]; conditions: Compound concentration 1000.0 nM
[24] = molecular target: Serine/threonine-protein kinase Chk2 (Homo sapiens) (UniProt O96017); conditions: Compound concentration 1000.0 nM
[25] = molecular target: Cyclin-dependent kinase 3 (Homo sapiens) (UniProt Q00526); conditions: Compound concentration 1000.0 nM
[26] = molecular target: Ephrin type-A receptor 6 (Homo sapiens) (UniProt Q9UF33); conditions: Compound concentration 1000.0 nM
[27] = molecular target: 5-hydroxytryptamine receptor 2A (Homo sapiens) (UniProt P28223); conditions: Compound concentration 10.0 uM
[28] = tested on: Receptor-type tyrosine-protein kinase FLT3 (Homo sapiens), P36888 [K663Q]; conditions: Compound concentration 1000.0 nM
[29] = molecular target: Casein kinase I isoform gamma-1 (Homo sapiens) (UniProt Q9HCP0); conditions: Compound concentration 1000.0 nM
[30] = molecular target: Hormonally up-regulated neu tumor-associated kinase (Homo sapiens) (UniProt P57058); conditions: Compound concentration 1000.0 nM
[31] = molecular target: Dual specificity testis-specific protein kinase 1 (Homo sapiens) (UniProt Q15569); conditions: Compound concentration 1000.0 nM
[32] = tested on: Mast/stem cell growth factor receptor Kit (Homo sapiens), P10721 [D816V]; conditions: Compound concentration 1000.0 nM
[33] = molecular target: Phosphatidylinositol 4,5-bisphosphate 3-kinase catalytic subunit delta isoform (Homo sapiens) (UniProt O00329); conditions: Compound concentration 1000.0 nM
[34] = molecular target: Protein-tyrosine kinase 6 (Homo sapiens) (UniProt Q13882); conditions: Compound concentration 1000.0 nM
Sequence of Protein-tyrosine kinase 6 (Homo sapiens) (Q13882 whole entry, looked up): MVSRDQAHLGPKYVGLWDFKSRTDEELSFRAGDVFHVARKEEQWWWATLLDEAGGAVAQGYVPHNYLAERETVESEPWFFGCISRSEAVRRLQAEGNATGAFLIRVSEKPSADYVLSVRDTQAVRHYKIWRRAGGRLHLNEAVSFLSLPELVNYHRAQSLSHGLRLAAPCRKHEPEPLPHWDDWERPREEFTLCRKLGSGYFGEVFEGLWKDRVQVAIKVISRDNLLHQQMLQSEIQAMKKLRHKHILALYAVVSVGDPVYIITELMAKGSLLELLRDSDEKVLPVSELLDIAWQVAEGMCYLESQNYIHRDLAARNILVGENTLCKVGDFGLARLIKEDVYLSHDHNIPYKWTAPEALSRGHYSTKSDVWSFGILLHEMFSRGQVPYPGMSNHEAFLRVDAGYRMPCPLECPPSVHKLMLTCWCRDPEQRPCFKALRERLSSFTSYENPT

[35] = molecular target: Microtubule-associated serine/threonine-protein kinase 1 (Homo sapiens) (UniProt Q9Y2H9); conditions: Compound concentration 1000.0 nM
[36] = molecular target: Serine/threonine-protein kinase 4 (Homo sapiens) (UniProt Q13043); conditions: Compound concentration 1000.0 nM
[37] = molecular target: Phosphorylase b kinase gamma catalytic chain, skeletal muscle/heart isoform (Homo sapiens) (UniProt Q16816); conditions: Compound concentration 1000.0 nM
[38] = molecular target: Citron Rho-interacting kinase (Homo sapiens) (UniProt O14578); conditions: Compound concentration 1000.0 nM
[39] = molecular target: Mitogen-activated protein kinase 3 (Homo sapiens) (UniProt P27361); conditions: Compound concentration 1000.0 nM
[40] = molecular target: Serine/threonine-protein kinase Nek10 (Homo sapiens) (UniProt Q6ZWH5); conditions: Compound concentration 1000.0 nM
[41] = molecular target: cGMP-dependent protein kinase 2 (Homo sapiens) (UniProt Q13237); conditions: Compound concentration 1000.0 nM
[42] = molecular target: Tyrosine-protein kinase Mer (Homo sapiens) (UniProt Q12866); conditions: Compound concentration 1000.0 nM
[43] = molecular target: D(1B) dopamine receptor (Homo sapiens) (UniProt P21918); conditions: Compound concentration 10.0 uM
[44] = molecular target: Activated CDC42 kinase 1 (Homo sapiens) (UniProt Q07912); conditions: Compound concentration 1000.0 nM

Sequence of RAC-alpha serine/threonine-protein kinase (Homo sapiens) (P31749 whole entry): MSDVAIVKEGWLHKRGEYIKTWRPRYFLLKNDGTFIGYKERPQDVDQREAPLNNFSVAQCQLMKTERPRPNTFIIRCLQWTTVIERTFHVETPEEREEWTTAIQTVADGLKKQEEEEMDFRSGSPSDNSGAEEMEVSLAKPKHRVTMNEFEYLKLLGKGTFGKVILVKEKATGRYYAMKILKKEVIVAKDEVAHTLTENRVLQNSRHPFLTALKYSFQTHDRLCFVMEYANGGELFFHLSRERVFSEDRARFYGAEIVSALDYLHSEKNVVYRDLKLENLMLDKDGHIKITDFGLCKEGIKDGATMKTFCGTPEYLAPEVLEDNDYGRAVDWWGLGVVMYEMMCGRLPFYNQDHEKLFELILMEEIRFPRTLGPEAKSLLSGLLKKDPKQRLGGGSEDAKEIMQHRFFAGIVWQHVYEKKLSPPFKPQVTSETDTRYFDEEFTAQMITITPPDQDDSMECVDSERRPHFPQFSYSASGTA
Sequence of Serine/threonine-protein kinase tousled-like 2 (Homo sapiens) (Q86UE8 whole entry, looked up): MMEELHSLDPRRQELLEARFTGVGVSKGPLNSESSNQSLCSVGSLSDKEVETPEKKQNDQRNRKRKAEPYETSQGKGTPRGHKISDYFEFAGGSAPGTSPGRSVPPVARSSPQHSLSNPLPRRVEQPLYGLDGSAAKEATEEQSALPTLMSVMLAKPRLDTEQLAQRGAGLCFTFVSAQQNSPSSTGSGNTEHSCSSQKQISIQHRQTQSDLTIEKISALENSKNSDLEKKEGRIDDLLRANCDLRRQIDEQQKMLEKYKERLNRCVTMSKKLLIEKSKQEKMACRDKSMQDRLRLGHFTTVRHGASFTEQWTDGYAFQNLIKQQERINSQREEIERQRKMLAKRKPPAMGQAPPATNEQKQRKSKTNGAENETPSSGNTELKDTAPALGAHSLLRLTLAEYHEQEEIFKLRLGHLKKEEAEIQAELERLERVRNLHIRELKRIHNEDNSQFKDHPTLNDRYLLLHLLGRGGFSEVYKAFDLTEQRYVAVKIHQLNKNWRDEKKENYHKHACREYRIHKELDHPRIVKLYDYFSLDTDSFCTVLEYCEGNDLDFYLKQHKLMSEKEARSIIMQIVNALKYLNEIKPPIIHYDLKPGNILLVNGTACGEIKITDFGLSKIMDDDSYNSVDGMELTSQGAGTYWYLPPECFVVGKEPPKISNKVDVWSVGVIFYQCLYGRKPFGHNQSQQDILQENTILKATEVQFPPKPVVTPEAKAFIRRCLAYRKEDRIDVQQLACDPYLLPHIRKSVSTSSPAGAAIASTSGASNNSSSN

CC(=O)C1=C(C)N(c2cccc(C(F)(F)F)c2)C(=O)N[C@@H]1c1ccc(C#N)nc1 [BAY-678]
inactive: inhibition [1] 10.9% | residual activity [2] 100% | residual activity [3] 90.4% | inhibition [4] -6.72% | residual activity [5] 100% | residual activity [6] 99.7% | residual activity [7] 67.5% | residual activity [8] 100% | residual activity [9] 100% | residual activity [10] 100% | residual activity [11] 100% | residual activity [12] 73.9% | residual activity [13] 94.1% | residual activity [14] 98.8% | residual activity [15] 91.3% | inhibition [16] 6.69% | inhibition [17] -6.78% | residual activity [18] 83.3% | residual activity [19] 100% | residual activity [20] 87.6% | residual activity [21] 100% | inhibition (Histamine H3 receptor) 50% | residual activity [22] 97.8% | residual activity [23] 80.3% | residual activity [24] 85.6% | residual activity [25] 100% | residual activity [26] 94.5% | inhibition [27] -0.427% | residual activity [28] 100% | residual activity [29] 100% | residual activity [30] 80.1% | residual activity [31] 100% | residual activity [32] 100% | residual activity [33] 89.8% | residual activity [34] 100% | residual activity [35] 96.9% | residual activity [36] 97.5% | residual activity [37] 100% | residual activity [38] 77.6% | residual activity [39] 97.1% | residual activity [40] 96.4% | residual activity [41] 100% | residual activity [42] 100% | inhibition [43] 0.739% | residual activity [44] 78.6%
